Assay results: patent publication US10597388B2, “Pyridazinone herbicides” (FMC CORPORATION, priority 2014, dated 2020)

Experiments:
Experiment in all cases: Test C greenhouse herbicide test, pre- and postemergence
Assay type in all cases: in vivo
[1] = tested on: soybean (Glycine max)
Method in brief: (§1)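 Visual 0–100 injury score (100 = complete control) taken against untreated controls after 13–15 d in greenhouse. Test chemicals, formulated in solvent plus surfactant, applied preemergence to seeds in loam–sand soil or postemergence to 1- to 4-leaf plants (2–18 cm).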

[2] = tested on: blackgrass (Alopecurus myosuroides)
Method in brief: as §1

[3] = tested on: ryegrass, Italian (Italian ryegrass, Lolium multiflorum)
Method in brief: as §1

[4] = tested on: crabgrass, large (large crabgrass, Digitaria sanguinalis)
Method in brief: as §1

[5] = tested on: wheat (winter wheat, Triticum aestivum)
Method in brief: as §1

[6] = tested on: foxtail, giant (giant foxtail, Setaria faberii)
Method in brief: as §1

[7] = tested on: velvetleaf (Abutilon theophrasti)
Method in brief: as §1

[8] = tested on: nutsedge, yellow (yellow nutsedge, Cyperus esculentus)
Method in brief: as §1

[9] = tested on: corn (Zea mays)
Method in brief: as §1

[10] = tested on: pigweed (Amaranthus retroflexus)
Method in brief: as §1

[11] = tested on: barnyardgrass (Echinochloa crus-galli)
Method in brief: as §1

[12] = tested on: galium (catchweed bedstraw, Galium aparine)
Method in brief: as §1

[13] = tested on: waterhemp (common waterhemp, Amaranthus rudis)
Method in brief: as §1

[14] = tested on: lambsquarters (Chenopodium album)
Method in brief: as §1

[15] = tested on: morningglory (Ipomoea coccinea)
Method in brief: as §1

[16] = Postemergence, 31 g ai/ha, 0 to 100 scale (0 no effect, 100 complete control)
[17] = Postemergence, 125 g ai/ha, scale 0 to 100, 0 is no effect, 100 is complete control
[18] = Postemergence, 250 g ai/ha, scale 0 to 100, 0 no effect, 100 complete control, 13 to 15 d
[19] = Preemergence, 31 g ai/ha, scale 0 to 100, 0 is no effect, 100 is complete control
[20] = Preemergence, 62 g ai/ha, scale 0 to 100, 0 is no effect, 100 is complete control
[21] = Preemergence, 125 g ai/ha, scale 0 to 100, 0 is no effect, 100 is complete control
[22] = Preemergence, 250 g ai/ha, scale 0 to 100, 0 no effect, 100 complete control
[23] = postemergence, 62 g ai/ha, scale 0 to 100, 0 no effect, 100 complete control

COC(=O)Oc1c(C)nn(C)c(=O)c1-c1c(C)sc2ccc(C)cc12 [Compound 80]
Soybean plant response rating [1, 16]: 0
Plant response rating, Soybean [1, 17]: 5
Plant response rating, Soybean [1, 18]: 20
Plant response rating, Soybean [1, 19]: 0
Plant response rating, Soybean [1, 20]: 0
Plant response rating, Soybean [1, 21]: 0
Soybean plant response rating [1, 22]: 0
Soybean plant response rating [1, 23]: 15
Blackgrass plant response rating [2, 16]: 15
Plant response rating, Blackgrass [2, 17]: 40
Plant response rating, Blackgrass [2, 18]: 50
Plant response rating, Blackgrass [2, 19]: 70
Plant response rating, Blackgrass [2, 20]: 80
Plant response rating, Blackgrass [2, 21]: 80
Blackgrass plant response rating [2, 22]: 90
Blackgrass plant response rating [2, 23]: 35
Ryegrass, Italian plant response rating [3, 16]: 80
Plant response rating, Ryegrass, Italian [3, 17]: 85
Plant response rating, Ryegrass, Italian [3, 18]: 85
Plant response rating, Ryegrass, Italian [3, 19]: 35
Plant response rating, Ryegrass, Italian [3, 20]: 70
Plant response rating, Ryegrass, Italian [3, 21]: 90
Ryegrass, Italian plant response rating [3, 22]: 90
Ryegrass, Italian plant response rating [3, 23]: 85
Crabgrass, Large plant response rating [4, 16]: 10
Plant response rating, Crabgrass, Large [4, 17]: 30
Plant response rating, Crabgrass, Large [4, 18]: 35
Plant response rating, Crabgrass, Large [4, 19]: 10
Plant response rating, Crabgrass, Large [4, 20]: 15
Plant response rating, Crabgrass, Large [4, 21]: 40
Crabgrass, Large plant response rating [4, 22]: 75
Crabgrass, Large plant response rating [4, 23]: 25
Wheat plant response rating [5, 16]: 0
Plant response rating, Wheat [5, 17]: 10
Plant response rating, Wheat [5, 18]: 15
Plant response rating, Wheat [5, 19]: 0
Plant response rating, Wheat [5, 20]: 0
Plant response rating, Wheat [5, 21]: 0
Wheat plant response rating [5, 22]: 0
Wheat plant response rating [5, 23]: 5
Foxtail, Giant plant response rating [6, 16]: 25
Plant response rating, Foxtail, Giant [6, 17]: 70
Plant response rating, Foxtail, Giant [6, 18]: 90
Plant response rating, Foxtail, Giant [6, 19]: 70
Plant response rating, Foxtail, Giant [6, 20]: 85
Plant response rating, Foxtail, Giant [6, 21]: 85
Foxtail, Giant plant response rating [6, 22]: 98
Foxtail, Giant plant response rating [6, 23]: 55
Velvetleaf plant response rating [7, 16]: 70
Plant response rating, Velvetleaf [7, 17]: 55
Plant response rating, Velvetleaf [7, 18]: 90
Plant response rating, Velvetleaf [7, 19]: 55
Plant response rating, Velvetleaf [7, 20]: 85
Plant response rating, Velvetleaf [7, 21]: 90
Velvetleaf plant response rating [7, 22]: 95
Velvetleaf plant response rating [7, 23]: 90
Nutsedge, Yellow plant response rating [8, 16]: 65
Plant response rating, Nutsedge, Yellow [8, 17]: 85
Plant response rating, Nutsedge, Yellow [8, 18]: 95
Plant response rating, Nutsedge, Yellow [8, 19]: 20
Plant response rating, Nutsedge, Yellow [8, 20]: 25
Plant response rating, Nutsedge, Yellow [8, 21]: 80
Nutsedge, Yellow plant response rating [8, 22]: 80
Nutsedge, Yellow plant response rating [8, 23]: 80
Corn plant response rating [9, 16]: 0
Plant response rating, Corn [9, 17]: 5
Plant response rating, Corn [9, 18]: 5
Plant response rating, Corn [9, 19]: 0
Plant response rating, Corn [9, 20]: 10
Plant response rating, Corn [9, 21]: 10
Corn plant response rating [9, 22]: 25
Corn plant response rating [9, 23]: 5
Pigweed plant response rating [10, 16]: 85
Plant response rating, Pigweed [10, 17]: 95
Plant response rating, Pigweed [10, 18]: 95
Plant response rating, Pigweed [10, 19]: 100
Plant response rating, Pigweed [10, 20]: 100
Plant response rating, Pigweed [10, 21]: 100
Pigweed plant response rating [10, 22]: 100
Pigweed plant response rating [10, 23]: 90
Barnyardgrass plant response rating [11, 16]: 25
Plant response rating, Barnyardgrass [11, 17]: 35
Plant response rating, Barnyardgrass [11, 18]: 35
Plant response rating, Barnyardgrass [11, 19]: 10
Plant response rating, Barnyardgrass [11, 20]: 65
Plant response rating, Barnyardgrass [11, 21]: 75
Barnyardgrass plant response rating [11, 22]: 85
Barnyardgrass plant response rating [11, 23]: 30
Galium plant response rating [12, 16]: 90
Plant response rating, Galium [12, 17]: 95
Plant response rating, Galium [12, 18]: 95
Plant response rating, Galium [12, 19]: 90
Plant response rating, Galium [12, 20]: 95
Plant response rating, Galium [12, 21]: 95
Galium plant response rating [12, 22]: 95
Galium plant response rating [12, 23]: 95
Waterhemp plant response rating [13, 16]: 85
Plant response rating, Waterhemp [13, 17]: 85
Plant response rating, Waterhemp [13, 18]: 95
Plant response rating, Waterhemp [13, 19]: 100
Plant response rating, Waterhemp [13, 20]: 100
Plant response rating, Waterhemp [13, 21]: 100
Waterhemp plant response rating [13, 22]: 100
Waterhemp plant response rating [13, 23]: 80
Lambsquarters plant response rating [14, 16]: 95
Plant response rating, Lambsquarters [14, 17]: 98
Plant response rating, Lambsquarters [14, 18]: 100
Plant response rating, Lambsquarters [14, 19]: 90
Plant response rating, Lambsquarters [14, 20]: 90
Plant response rating, Lambsquarters [14, 21]: 90
Lambsquarters plant response rating [14, 22]: 98
Lambsquarters plant response rating [14, 23]: 95
Morningglory plant response rating [15, 16]: 100
Plant response rating, Morningglory [15, 17]: 100
Plant response rating, Morningglory [15, 18]: 98
Plant response rating, Morningglory [15, 19]: 85
Plant response rating, Morningglory [15, 20]: 90
Plant response rating, Morningglory [15, 21]: 90
Morningglory plant response rating [15, 22]: 98
Morningglory plant response rating [15, 23]: 100
